Data set [1] deals with HMEC-1. Kind of data set: in vitro migration assay (wound closure / wound scrape), recombinant protein or peptides added to medium. It counts as cell-based, Human. Conditions: wound scrape. On the procedure:
The in vitro migration assay used in these studies is a modified version of the method described by Ashton et al (1999). HMEC-1 were plated into individual chambers on a glass slide and grown to 90% confluence overnight. The medium was removed and the monolayer wounded. The monolayer was re-supplemented with fresh medium and the required volume of recombinant full length his-tagged FKBP-L protein (SEQ ID NO: 1) was added to give the required final concentration.
The monolayers were incubated for 7 hours after exposure to recombinant FKBP-L protein and then fixed in 4% PBS buffered paraformaldehyde. The extent of “wound” closure was blindly assessed microscopically by an independent investigator and quantified using a calibrated eyepiece graticule (1 mm/100 μm graduation) at 20× magnification (Olympus BX 50). The extent of closure in the FKBP-L treated slides was compared to time matched sham treated controls and the % inhibition of wound closure compared to time matched controls calculated.
The following studies were performed to determine the effect of a full length His-tagged recombinant FKBP-L protein on the wound closure assay measured as a function of time. Again, the in vitro migration assay used in these studies is a modified version of the method described by Ashton et al (1999). HMEC-1 were plated into individual chambers on a glass slide and grown to 90% confluence overnight. The medium was removed and the monolayer wounded. The monolayer was re-supplemented with fresh medium and the required volume of full length his-tagged recombinant FKBP-L (i.e., SEQ ID NO: 1) added to give the required final concentration 750 ngml^−1.
Slides were removed at fixed time points until complete closure of the wound, then fixed in 4% PBS buffered paraformaldehyde. The extent of “wound” closure was blindly assessed microscopically by an independent investigator and quantified using a calibrated eyepiece graticule (1 mm/100 μm graduation) at 20× magnification (Olympus BX 50). The extent of closure in the FKBP-L treated slides was compared to time matched sham treated controls and the % inhibition of wound closure compared to time matched controls calculated.
The in vitro migration assay used in these studies is a modified version of the method described by Ashton et al. (1999) see supra. HMEC-1 were plated into individual chambers on a glass slide and grown to 90% confluence overnight. The medium was removed and the monolayer wounded. The monolayer was re-supplemented with fresh medium and the required volume of the following peptides was added to achieve a dose range from 10^−14-10^−6 M.
The monolayers were incubated for 7 h and then fixed in 4% PBS buffered paraformaldehyde. The extent of “wound” closure was blindly assessed microscopically by an independent investigator and quantified using a calibrated eyepiece graticule (1 mm/100 μm graduation) at 20× magnification (Olympus BX 50). The extent of closure in the FKBP-L treated slides was compared to time matched sham treated controls and the % inhibition of wound closure compared to time matched controls calculated.
The in vitro migration assay used in these studies is a modified version of the method described by Ashton et al. (1999) see supra. HMEC-1 were plated into individual chambers on a glass slide and grown to 90% confluence overnight. The medium was removed and the monolayers wounded. The monolayer was re-supplemented with fresh medium and the required volume of each peptide (i.e., peptides 1-17, SEQ ID NOS: 12-28; Table 4 below) was added to give the required final concentration (10^−14-10^−6 M).
The monolayers were incubated for 24 h and then fixed in 4% PBS buffered paraformaldehyde. The extent of “wound” closure was blindly assessed microscopically by an independent investigator and quantified using a calibrated eyepiece graticule (1 mm/100 μm graduation) at 20× magnification (Olympus BX 50). […]

For a further data set, the system named is HMEC-1 cells. The data set can be described thus: MTT assay of cell viability/proliferation. Conditions: 24mer 10^−5-10^−10M, 1-57mer 10^−9M and 10^−10M; 24 hours and 48 hours.
A further data set concerns rat aortic ring. It counts as cell-based, Male Wistar rats. On the procedure: Male Wistar rats were euthanised and the thoracic aorta was aseptically removed and sectioned into 1 cm thick rings. The rings were washed ten times in sterile medium to remove any bacteria and embedded into Matrigel on 24 well plates. The wells were supplemented with 2 ml of medium and increasing concentrations of full-length His-tagged recombinant FKBP-L protein (SEQ ID 1). The plate was incubated for 8 days and post incubation the Matrigel and rings were fixed in 4% PBS buffered paraformaldehyde and stored in PBS. The extent of vessel development was blindly assessed microscopically by an independent investigator and quantified using a calibrated eyepiece graticule (1 mm/100 μm graduation) at 20× magnification (Olympus BX 50). The extent of vessel length, maximum vessel length and number of vessels in each field of view was measured and compared to time matched sham controls and the percent (%) inhibition calculated. Male Wistar rats were euthanised and the thoracic aorta was aseptically removed and sectioned into 1 cm thick rings. The rings were washed ten times in sterile medium to remove any bacteria and embedded into Matrigel on 24 well plates. The wells were supplemented with 2 ml of medium and increasing concentrations of FKBP-L 24mer (SEQ ID NO: 10) and FKBP-L 1-57mer (SEQ ID NO: 6) and recombinant FKBP-L (SEQ ID NO:1). The plate was blindly assessed by an independent investigator and quantified using a calibrated eyepiece graticule (1 mm/100 μm graduation) at 20× magnification (Olympus BX 50). The extent of vessel length, maximum vessel length and number of vessels in each field of view was measured and compared to time matched sham controls and the % inhibition calculated. In order to determine whether the FKBP-L 24mer exerted a permanent or static effect on endothelial cell sprouting the rat aortic ring assay was used. Male Wistar rats were euthanised and the thoracic aorta was aseptically removed and sectioned into 1 cm thick rings. The rings were washed ten times in sterile medium to remove any bacteria and embedded into Matrigel on 24 well plates. The wells were supplemented with 2 ml of medium. The plates were incubated for up to 15 days. Each day the Matrigel rings were photographed and returned to their incubator. Two further experiments were carried out: (A) addition of FKBP-L 24mer to the medium after the vessels had grown for seven days; and (B) addition of FKBP-L 24mer to the medium at the initial embedding stage, with subsequent removal after seven days and replacement with fresh medium for a further seven days. The extent of vessel development was quantified using a calibrated eyepiece graticule (1 mm/100 μm graduation) at 20× magnification (Olympus BX 50), and measured electronically using Lucia imaging software. Vessel length was measured and compared to time matched sham controls and the percent (%) inhibition calculated.

Data set [2] relates to HMEC-1. The format is cell-based, Human. Conditions: 18 h. On the procedure:
(§1) The in vitro tubule formation assay used in these studies is a modified version of the method described by Ashton et al (1999). In brief, assays were conducted using BD BioCoat™ Matrigel™ Matrix Thin Layer 24-well Multiwell Plates (BD Discovery Labware, Oxford, UK). The Matrigel™ was rehydrated with 500 μl MCDB-131 serum free medium and incubated at 37° C. for 30 minutes. Excess medium was removed and HMEC-1 were seeded at a density of 1×10^5 and the plates incubated at 37° C. under 5% CO2/95% air for 1 hour.
Increasing concentrations of the recombinant FKBP-L protein (SEQ ID NO: 1) were added to each individual well in triplicate (250-1000 ngml^−1) and the plate was incubated for a further 18 hours. The degree of tubule formation between adjacent HMEC-1 cells was assessed in each well in five fields of view, by counting the number of cell to cell contacts between different HMEC-1 cells in the designated area. An independent investigator assessed each well and the FKBP-L treated wells were compared to sham treated controls.
as §1, with “al.” for “al”, “min.” for “minutes.”, “h. Increasing concentrations of FKBP-L 24mer (SEQ ID NO: 10) and 1-57mer (SEQ ID NO: 6) from 10^−14-10^−6 M were used.” for “hour.”
The plate was incubated for a further 18 h. The degree of tubule formation between adjacent HMEC-1 cells was assessed in each well in five fields of view, by counting the number of cell to cell contacts between different HMEC-1 cells in the designated area. An independent investigator assessed each well and the FKBP-L treated wells were compared to sham treated controls.

Data set [3] concerns DU145 human prostate tumor xenograft. Kind of data set: prostate cancer xenograft model, intratumoral injection of plasmid complexes. It counts as in vivo, severe combined immunodeficient mice. The conditions noted are these: twice weekly. Here is the method: Du145 (prostate carcinoma) cells were obtained from Cancer Research UK and cultured in RPMI 1640 medium (Invitrogen) supplemented with 10% foetal calf serum. All cell lines were grown as monolayers, incubated at 37° C. under 5% CO2.
The FKBP-L/pcDNA3.1 plasmid was constructed by excision of the FKBPL cDNA using BamH1 (polynucleotide SEQ ID NO:31) from pUC18 and then directional ligation of FKBP-L into the BamHI restriction site of pcDNA3.1 (Invitrogen) as described in Example 1. The endostatin plasmid (for use as a postive anti-angiogenic control) hEndo XV/pcDNA3.1, was constructed by digesting the pBLAST hENDO XV plasmid (InVivoGen) with Hpa1 (Promega) and EcoV (Invitrogen) to release the hEndo XV insert. The hEndo XV insert was ligated directionally into the ECoRV restriction site of pcDNA3.1 (Invitrogen).
Nineteen (19) male immunocompromised (severe combined immunodeficient) mice were used (Harlan). The mice were aclimatized and caged in groups of 5 or less in a barrier care facility. Du145 (prostate carcinoma) cells were cultured as previously described. Subconfluent cells were harvested and the cell concentration was adjusted to 5×10^7 cells/ml in PBS. The dorsum of each mouse was shaved. […] The tumors were measured before each treatment. Tumor volume was calculated as: 4/3 πr^3 (where r=½ GMP and GMP=^3√{square root over (Length×Breadth×Height)}).

In the next data set the test system is L132 cells. Kind of data set: cDNA microarray analysis of gene expression after FKBP-L antisense. The format is cell-based. Conditions: 8 h after exposure, vs lipofectin only. On the procedure: Total RNA was isolated from L132 cells, 8 h after exposure to FKBP-L antisense (FKBP-L antisense: 5′ ATG GCC AGG CTC CCG CTC 3′) (SEQ ID NO: 40) or lipofectin only as a control. Poly A+mRNA was extracted from total RNA samples using the Qiagen Oligotex kit (Qiagen, UK), according to the manufacturer's instructions. These mRNA samples (800 ng per sample) were sent to Incyte Genomics, USA where a UniGEM 2.0 microarray analysis was conducted.
Incyte's Lifearray chips enable the interrogation of up to 10,000 genes simultaneously, resulting in the comparison of gene expression levels in two different samples. Briefly, a standard reverse transcription reaction was carried out to convert both mRNA samples to cyanine-dye-labelled cDNA. mRNA from L132 cells treated with FKBP-L antisense oligonucleotides after 8 h was used to generate a Cyanine 3 (green) labelled probe and mRNA from L132 cells treated with lipofectin only after 8 hours was used to produce a Cyanine 5 (red) labelled probe. The two fluorescent probe samples were simultaneously applied to a single microarray chip containing numerous cDNA probes immobilised on a solid support in specific locations, where they competitively reacted with the arrayed cDNA molecules. Following incubation, the microarray was rinsed in a series of baths to ensure the removal of any unhybridised sample. The microarray was then captured as an image that was acquired using a scanner for fluorescent signal detection. This scanner generated data on the intensity of each spot by excitation of the fluorochromes on the array. Each element of the chip was scanned for the Cy3 (green) and then the Cy5 (red) fluorescent label to create electronic images for both dye channels. The final array images were analysed using the Incyte GEMTools software package.

pEC50, pIC50: −log10 of the molar value. Ends that are not written are not given here.

Procedure for HMEC-1 cells: An MTT assay was used to measure cell viability/proliferation.
An MTT assay was used to measure cell viability and/or proliferation. Briefly, HMEC-1 cells were seeded (2.5×10^3) in 96 well plates and allowed to attach for 5 h. The cells were treated with FKBP-L 24mer (SEQ ID NO: 10) (10^−5-10^−10M), 1-57mer (SEQ ID NO: 6) (10^−9M and 10^−10M) or medium (control).
Post incubation the cells were exposed to a 5 mgml^−1 solution of 3-(-4,5-dimethylthiazol-2-yl) 2,5 diphenyl tetrazolium (MTT) for 4 h. The cells were aspirated and 200 μl of DMSO added to reduce the salt and induce a colour change.

As to “RQQPRDPPTETLELEVSPD-OH (listed as Homo sapiens) [Pep 12]”, the “activity relative to the FKBP-L 24mer” value with HMEC-1 [1] (24 h) is “about the same as the FKBP-L 24mer”.

On to “METPPVNTIGEKDTSQPQQEWEKNLRENLDSVIQIRQQPRDPPTETLELEVSPDPAS [FKBP-L 1-57mer]”, for which the “effect on proliferation of HMEC-1 cells compared to time-matched controls” value in the data set on HMEC-1 cells was “neither of the peptides had any significant effect”. Moreover, in the data set with rat aortic ring, the pIC50 was 9.28. Moreover, the “potency compared with the full length recombinant protein on a mole/mole basis” value with HMEC-1 [1] (7 h) is reported as “increased potency”. Moreover, the pEC50 in the data set with HMEC-1 [2] was 12.15.

In the case of endostatin, in data set [3], the tumor appearance entry is “evidence of a necrotic center”.

“5′ ATG GCC AGG CTC CCG CTC 3′ (antisense ATGGCCAGGCTCCCGCTC; listed as DNA, chemistry not given here; listed as Homo sapiens) [FKBP-L anti-sense oligonucleotides]”: in the data set on L132 cells (decrease ↓), the “Fold Increase (↑) or Decrease (↓): Annexin 2” value is listed as “↓ 1.6 Fold”, the “Fold Increase (↑) or Decrease (↓): CYR61” value was “↓ 2.4 Fold”, the “Fold Increase (↑) or Decrease (↓): Tubulin α” value is recorded as “↓ 1.5 Fold” and the “Fold Increase (↑) or Decrease (↓): Tubulin β” value is reported as “↓ 1.5 Fold”. Further, the “Fold Increase (↑) or Decrease (↓): Tubulin γ” value in the data set with L132 cells (decrease ↓) is reported as “↓ 1.6 Fold”. In addition, in the data set on L132 cells (increase ↑), the “Fold Increase (↑) or Decrease (↓): MMP-like 1” value is given as “↑ 1.5 Fold”, the “Fold Increase (↑) or Decrease (↓): Microtubule associated protein 1B” value is “↑ 1.6 Fold”, the “Fold Increase (↑) or Decrease (↓): PI3K” value is reported as “↑ 3.1 Fold” and the “Fold Increase (↑) or Decrease (↓): ROCK” value is given as “↑ 1.6 Fold”. In the data set with L132 cells (increase ↑), the “Fold Increase (↑) or Decrease (↓): Rho GTPase activating protein-” value is “↑ 2.0 Fold” and the “Fold Increase (↑) or Decrease (↓): oligophrenin 1” value is “↑ 1.7 Fold”.
